For orientation: LOAEL means the lowest tested level that showed an adverse finding. One may read the NOAEL as the highest dose or exposure tested at which no adverse effect was seen.

Data on 1 molecule can be found in EPA's ToxValDB 9.5 (doi:10.2903/j.efsa.2009.327r).

The subject of data set [1] is Colinus virginianus.
The test system of data set [2] is Bibionidae. To be noted: chronic/long-term, duration: 28 days.
Data set [3] relates to Aphidius rhopalosiphi. The note with it: acute; duration: 7 days; mortality.
Data set [4] has as its system Oncorhynchus mykiss. The note with it: acute; duration: 96 hours; mortality.
Data set [5] has as its system Pimephales promelas. To be noted: chronic/long-term; duration: 35 days; growth.
Data set [6] has as its system Tagia sp. To be noted: acute; duration: 14 days; mortality.
In data set [7] the test system is Apis mellifera. The note with it: acute, mortality.
Data set [8] has as its system Daphnia magna. The note with it: chronic/long-term; duration: 21 days; reproduction.
The subject of data set [9] is Rattus norvegicus.

≈ marks a conversion by molar mass, not a printed value.

As for `CCCN(CCC)c1c([N+](=O)[O-])cc(C(F)(F)F)cc1[N+](=O)[O-]` [Trifluralin], the LC50 in [1] (acute, oral, diet, mortality) was 574 mg/kg-day; in [4], 0.088 µg/mL (≈ 0.262 µM); in data set [6] it was above 1000 mg/kg. Further, the LD50 was above 2250 mg/kg in [1] (acute, oral, mortality); above 100 µg/piece in [7] (duration: 48 hours, dermal); above 80 µg/piece in data set [7] (oral, unspecified); above 5000 mg/kg in data set [9] (acute, oral, mortality). The NOEC came to 103 mg/kg-day in [1] (reproduction developmental); 0.25 mg/L in [2] (development); 810 mg/kg in data set [2] (mortality); 0.0003 mg/L in data set [5]; 0.0507 mg/L in data set [8]. Besides, the LEL in data set [3] is 1200 g/ha. The lowest-observed-adverse-effect level (LOAEL) in [9] (chronic, duration: 2 years, Fischer 344, histopathology: neoplastic) was 30 mg/kg-day. The NOAEL came out at 148 mg/kg-day in data set [9] (reproduction developmental, reproduction) and 2.6 mg/kg-day in [9] (subchronic, duration: 90 days, oral).
